# Patent EP1283052A1, “Pharmaceutical composition containing caspase-8 and /or caspase-9 useful for overcoming glucocorticoid- and cancer therapy-induced apoptosis of tumours” (Deutsches Krebsforschungszentrum Stiftung des öffentlichen …, priority 2001, dated 2003)
# System: apoptosome
# Assay: Co-immunoprecipitation of apoptosome proteins with Apaf-1 in P5 cells
# Assay type: cell-based, human
# Settings: carcinoma cells (P5), cisplatin, 24 h; Fig. 5b
# Procedure: • (a) P693 and CEM cells were treated with cisplatin (2 µg/ml) in the absence or presence of DEX (1 µM) as indicated. 24 and 48 h following treatment cells were lysed and caspase-9 activity was determined using a fluorescent caspase-9 assay and spectroscopy. • (b) P5 and CEM cells were treated as described above. 24 h after stimulation Apaf-1 was immunoprecipitated from the cell extracts using a […]. Aliquotes of the precipitates were separated by three different gels and analysed by Western blotting using rabbit polyclonal Apaf-1, mAb cytochrome c or caspase-9 antibodies. The antibody heavy chain band (IgGH) ensures equal conditions. […]
# • (A) Cell culture. […] The mice were given 0.28 mg/L DEX in drinking water, and the amount of water consumed was monitored. […] The tumour volumes were measured using callipers, and calculated using, as an approximation, the formula for volume of a hemi-ellipsoid: π(width^2 x length)/6. […] Early apoptotic changes were identified by staining of cells with fluoresceinthiocyanate (FITC)-conjugated annexin V and propidium iodide (Becton Dickinson, Heidelberg, Germany) and analysed by flow cytometry (FACScan, Becton Dickinson) as described (Herr et al., EMBO J. 16 (1997), 6200-6208) • (E) Immunohistochemistry. […] Bound antibodies were detected by FITC conjugated anti-mouse or anti-rabbit IgG (Molecular Probes Europe, Leiden, The Netherlands). […]
smiles,measurement,value
N.N.[Cl][Pt][Cl] [cisplatin],"amounts of immunoprecipitated apoptosome members (APAF-1, caspase-9, cytochrome c)","strong induction in the amounts of APAF-1, caspase-9 and cytochrome c"
